The text below walks through data of ChEMBL document CHEMBL1138930, “Discovery of novel triazole-based opioid receptor antagonists” (J Med Chem, 2006).

Assay [1] concerns Delta and mu opioid receptors (Mus musculus). In words: Selectivity for delta opioid receptor over mu opioid receptor.
Assay [2] concerns Delta (Mus musculus) and kappa (Rattus norvegicus) opioid receptors. Nature of the assay: Selectivity for delta opioid receptor over kappa opioid receptor.
Assay [3] has as its target Mu-type opioid receptor (Mus musculus) (UniProt P42866). Nature of the assay: Inhibition of (-)-[9-3H]bremazocine binding to mu opioid receptor at 10 uM.
The target in assay [4] is Delta-type opioid receptor (Mus musculus) (UniProt P32300). Nature of the assay: Inhibition of (-)-[9-3H]bremazocine binding to delta opioid receptor at 10 uM.
Assay [5] addresses Kappa-type opioid receptor (Rattus norvegicus) (UniProt P34975). In words: Inhibition of (-)-[9-3H]bremazocine binding to kappa opioid receptor at 10 uM.
Assay [6] has as its target Mu-type opioid receptor (Mus musculus) (UniProt P42866). Nature of the assay: Inhibition of (-)-[9-3H]bremazocine binding to mu opioid receptor expressed in HEK293 cells.
For assay [7], the target named is Delta-type opioid receptor (Mus musculus) (UniProt P32300). Nature of the assay: Inhibition of (-)-[9-3H]bremazocine binding to delta opioid receptor expressed in HEK293 cells.
For assay [8], the target named is Kappa-type opioid receptor (Rattus norvegicus) (UniProt P34975). Nature of the assay: Inhibition of (-)-[9-3H]bremazocine binding to kappa opioid receptor expressed in HEK293 cells.
Kappa-type opioid receptor (Rattus norvegicus), sequence (P34975 whole entry, looked up): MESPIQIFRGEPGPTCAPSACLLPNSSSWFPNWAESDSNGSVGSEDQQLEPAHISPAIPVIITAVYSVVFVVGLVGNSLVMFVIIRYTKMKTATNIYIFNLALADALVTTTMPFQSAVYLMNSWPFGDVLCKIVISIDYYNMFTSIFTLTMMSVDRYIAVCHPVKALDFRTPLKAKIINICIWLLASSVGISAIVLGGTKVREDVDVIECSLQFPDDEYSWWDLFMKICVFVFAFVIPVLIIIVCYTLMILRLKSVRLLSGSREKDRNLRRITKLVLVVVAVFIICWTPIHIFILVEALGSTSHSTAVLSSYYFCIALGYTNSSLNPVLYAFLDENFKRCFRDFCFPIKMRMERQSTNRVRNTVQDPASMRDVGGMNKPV

Mu-type opioid receptor (Mus musculus), sequence (P42866 whole entry, looked up): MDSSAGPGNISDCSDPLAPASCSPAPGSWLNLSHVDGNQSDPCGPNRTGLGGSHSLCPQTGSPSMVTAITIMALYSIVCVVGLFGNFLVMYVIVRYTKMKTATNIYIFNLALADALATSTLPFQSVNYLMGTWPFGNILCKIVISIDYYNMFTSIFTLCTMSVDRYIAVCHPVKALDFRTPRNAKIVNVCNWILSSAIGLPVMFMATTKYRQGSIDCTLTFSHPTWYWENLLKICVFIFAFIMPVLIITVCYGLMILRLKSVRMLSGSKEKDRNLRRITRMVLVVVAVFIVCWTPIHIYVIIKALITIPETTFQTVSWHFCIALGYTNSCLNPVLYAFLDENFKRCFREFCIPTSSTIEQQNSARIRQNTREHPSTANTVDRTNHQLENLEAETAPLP
Delta-type opioid receptor (Mus musculus), sequence (P32300 whole entry, looked up): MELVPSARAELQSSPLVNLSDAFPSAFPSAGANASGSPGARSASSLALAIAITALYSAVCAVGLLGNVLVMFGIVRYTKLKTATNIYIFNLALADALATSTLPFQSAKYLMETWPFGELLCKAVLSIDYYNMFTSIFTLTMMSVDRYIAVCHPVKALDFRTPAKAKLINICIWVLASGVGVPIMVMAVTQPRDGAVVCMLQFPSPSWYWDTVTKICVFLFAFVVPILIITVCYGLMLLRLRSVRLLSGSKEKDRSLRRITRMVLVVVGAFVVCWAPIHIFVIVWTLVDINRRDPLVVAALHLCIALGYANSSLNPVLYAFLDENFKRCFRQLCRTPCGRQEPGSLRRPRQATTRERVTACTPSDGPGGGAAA

With `CN(C)c1nnc(-c2cccc(-c3ccccc3)c2)n1-c1cccc(O)c1`, the Selectivity ratio in assay [1] and in assay [2] was above 66.6 throughout. Moreover, the results for the inhibition in assay [3], in assay [4] and in assay [5] were 23%, 86% and 8%, respectively. In addition, the Ki in assay [6] is above 10 µM; in assay [7], 0.15 µM; in assay [8] it was above 10 µM.
In the case of `CN(C)Cc1nnc(-c2ccc(C(C)(C)C)cc2)n1-c1cccc(O)c1`, the inhibition in assay [5] amounted to 9%. Further, the Ki in assay [8] is above 10 µM.
For `CN(C)c1nnc(-c2ccc3ccccc3c2)n1-c1cccc(O)c1`, the Selectivity ratio in assay [1] and in assay [2] was above 20.8 throughout. Besides, the inhibition came to 48% in assay [3], 68% in assay [4] and 27% in assay [5]. The Ki in assay [6] was above 10 µM; in assay [7] it was 0.48 µM; in assay [8], above 10 µM.
For `CN(C)c1nnc(-c2ccc(C(C)(C)C)cc2)n1-c1cccc(O)c1`, the Selectivity ratio is 80 in assay [1] and above 200 in assay [2]. Moreover, the inhibition in assay [3] was 32%; in assay [4] it was 94%; in assay [5], 6%. For the same molecule, the Ki in assay [6] is 4 µM; in assay [7], 0.05 µM; in assay [8], above 10 µM.
Take `CC(C)(C)c1cccc(-c2nncn2-c2cccc(O)c2)c1`: the Selectivity ratio in assay [1] turned out to be 3.7; in assay [2], 6.52. For the same molecule, the inhibition came out at 78% in assay [3], 91% in assay [4] and 66% in assay [5]. For the same molecule, the Ki is 0.85 µM in assay [6], 0.23 µM in assay [7] and 1.5 µM in assay [8].
With `COc1cccc(-n2cnnc2-c2ccc(C(C)(C)C)cc2)c1`, the results for the inhibition in assay [3] and in assay [5] were 9% and 8%, respectively. For the same molecule, the Ki in assay [6] and in assay [8] was above 10 µM each time.
As for `CN1CCN(c2nnc(-c3ccc(C(C)(C)C)cc3)n2-c2cccc(O)c2)CC1`, the inhibition in assay [3] is 5%; in assay [4], 18%; in assay [5], 12%. For the same molecule, the Ki in assay [6], in assay [7] and in assay [8] was above 10 µM each time.
As to `CN(C)c1nnc(-c2ccc(-c3ccccc3)cc2)n1-c1cccc(O)c1`, the inhibition came out at 15% in assay [3], 82% in assay [4] and 11% in assay [5]. The Ki in assay [6] is above 10 µM; in assay [7] it was 0.13 µM; in assay [8], above 10 µM.
As to `CN(C)c1nnc(-c2cccc(C(C)(C)C)c2)n1-c1cccc(O)c1`, the values for the inhibition in assay [3], in assay [4] and in assay [5] were 19%, 76% and 6%, respectively. The Ki in assay [6] was above 10 µM; in assay [7], 1.05 µM; in assay [8] it was above 10 µM.
As to `CN(C)CCc1nnc(-c2ccc(C(C)(C)C)cc2)n1-c1cccc(O)c1`, the inhibition worked out at 23% in assay [3], 90% in assay [4] and 19% in assay [5]. The Ki in assay [6] is above 10 µM; in assay [7] it was 0.9 µM; in assay [8], above 10 µM.
On to `Oc1cccc(-n2cnnc2-c2cccc(-c3ccccc3)c2)c1`, for which the Selectivity ratio was 7.14 in assay [1] and above 71.4 in assay [2]. The inhibition in assay [3] was found to be 84%; in assay [4], 84%; in assay [5], 42%. Moreover, the Ki in assay [8] is above 10 µM.
The molecule `CN(C)Cc1nnc(-c2cccc(C(C)(C)C)c2)n1-c1cccc(O)c1` came in with an inhibition in assay [4] of 65%. Moreover, the affinity in assay [7], expressed as Ki, was 2.6 µM.
As for `COc1cccc(-n2cnnc2-c2cccc(C(C)(C)C)c2)c1`, in assay [5], the inhibition came to 5%. In addition, the Ki in assay [8] was above 10 µM.
Consider `CN(C)c1nnc(-c2ccc(C(C)(C)C)cc2)n1-c1ccc(O)cc1`, for which the values for the inhibition in assay [3], in assay [4] and in assay [5] were 8%, 27% and 21%, respectively. The Ki in assay [6], in assay [7] and in assay [8] was above 10 µM each time.
On to `COc1cccc(-n2c(-c3ccc(C(C)(C)C)cc3)nnc2N(C)C)c1`, for which the inhibition in assay [3] is 50%; in assay [4], 28%; in assay [5], 3%. Besides, the Ki in assay [6], in assay [7] and in assay [8] was above 10 µM throughout.
As for `Oc1cccc(-n2cnnc2-c2ccc(-c3ccccc3)cc2)c1`, the figures for the inhibition in assay [3], in assay [4] and in assay [5] were 60%, 75% and 46%, respectively. Besides, the values for the Ki in assay [6], in assay [7] and in assay [8] were above 10 µM, 1.5 µM and above 10 µM, respectively.
As to `CC(C)(C)c1ccc(-c2nncn2-c2cccc(O)c2)cc1`, the inhibition was 16% in assay [3], 54% in assay [4] and 16% in assay [5]. In addition, the Ki is above 10 µM in assay [6], 10 µM in assay [7] and above 10 µM in assay [8].
Regarding `Oc1cccc(-n2cnnc2-c2ccc3ccccc3c2)c1`, the Selectivity ratio in assay [1] and in assay [2] was above 4.76 each time. Also, the inhibition in assay [3] was 48%; in assay [4] it was 68%; in assay [5] it was 27%. The inhibitory constant (Ki) in assay [6] was above 10 µM; in assay [7] it was 2.1 µM; in assay [8] it was above 10 µM.
